The values below come from US20120245155A1, “FUSED HETEROCYCLIC COMPOUND HAVING AMINO GROUP” (Shionogi & Co., Ltd., priority 2009, published 2012).

The structures appear in SMILES notation.

In data set [1] the test system is Neuroblastoma SH—SY5Y cells (SH/APPwt) with human wild-type β-APP excessively expressed. Briefly: Measurement of β-amyloid (Aβ) production inhibitory effect in cell. Format: cell-based. The conditions noted are these: 24 hours incubation, Amyloid β 1-40 by HTRF, read-out: amount needed to inhibit Aβ production by 50% (IC50). As for the experimental part: Neuroblastoma SH—SY5Y cells (SH/APPwt) with human wild-type p-APP excessively expressed therein were prepared at 8×10^5 cells/mL, and 150 μl portions thereof were inoculated into each well of a 96-well culture plate (Falcon). The cells were cultured for 2 hours at 37° C. in a 5% gaseous carbon dioxide incubator. Then, a solution which had been preliminarily prepared by adding and suspending the test compound (DMSO (dimethyl sulfoxide) solution) so as to be 2 μl/50 μl medium was added to the cell sap. Namely, the final DMSO concentration was 1%, and the amount of the cell culture was 200 μl. After the incubation was performed for 24 hours from the addition of the test compound, 100 μl of the culture supernatant was collected from each fraction. The amount of the Aβ in each fraction was measured.
The Aβ amount was measured as follows. 10 μl of a homogeneous time resolved fluorescence (HTRF) measurement reagent (Amyloid β 1-40 peptide; IBA Molecular Holding, S. A.) and 10 μl of the culture supernatant were put into a 384-well half area microplate (black microplate, Costar) and mixed with each other, and then left standing overnight at 4° C. while the light was shielded. Then, the fluorescence intensity (excitation wavelength: 337 nm, measurement wavelength: 620 nm and 665 nm) was measured with a Wallac 1420 multilabel counter (Perkin Elmer life sciences). The Aβ amount was determined from the count rate at each measurement wavelength (10000× Count 665/Count 620), and the amount needed to inhibit Aβ production by 50% (IC50) was calculated from at least six different dosages.
Background: In TR-FRET formats the signal depends on donor and acceptor labels being close together.

A further data set concerns the target T1, hERG (IKr) (Homo sapiens, UniProt Q12809).
T1 construct: expressed in transfected cells; host or cells: HEK293 cells
Briefly: hERG test. Conditions: pH 7.4, HEK293 cells expressing hERG channel, whole cell patch clamp, concentration not given, read-out: % inhibition relative to the tail peak current (IKr). Format: cell-based. An excerpt: For the purpose of assessing risk of an electrocardiogram QT interval prolongation, effects on delayed rectifier K+ current (IKr), which plays an important role in the ventricular repolarization process of the compound of the present invention, is studied using HEK293 cells expressing human ether-a-go-go related gene (hERG) channel.
After a cell was retained at a membrane potential of −80 mV by whole cell patch clamp method using an automated patch clamp system (PatchXpress 7000A, Axon Instruments Inc.), IKr induced by depolarization pulse stimulation at +40 mV for 2 seconds and, further, repolarization pulse stimulation at −50 mV for 2 seconds was recorded. […] From the recording IKr, an absolute value of the tail peak current was measured based on the current value at the resting membrane potential using analysis software (DataXpress ver. 1, Molecular Devices Corporation). Further, the % inhibition relative to the tail peak current before application of the test compound was calculated, and compared with the vehicle-applied group (0.1% dimethyl sulfoxide solution) to assess influence of the test compound on IKr.
(Block of hERG is tested as a sign of cardiac risk.)

Data set [2] can be described thus: Metabolism stability test. The conditions noted are these: human liver microsomes 0.5 mg protein/mL, 1 mmol/L NADPH, 37° C., 30 minutes; 0 minute = 100%. The data set is classed as in vitro ADME. As for the experimental part:
Using commercially available pooled human hepatic microsomes, a test compound is reacted for a constant time, a remaining rate is calculated by comparing a reacted sample and an unreacted sample, thereby, a degree of metabolism in liver is assessed.
A reaction is performed (oxidative reaction) at 37° C. for 0 minute or 30 minutes in the presence of 1 mmol/L NADPH in 0.2 mL of a buffer (50 mmol/L Tris-HCl pH 7.4, 150 mmol/L potassium chloride, 10 mmol/L magnesium chloride) containing 0.5 mg protein/mL of human liver microsomes. After the reaction, 50 μL of the reaction solution is added to 100 μL of a methanol/acetonitrile=1/1 (v/v), mixed and centrifuged at 3000 rpm for 15 minutes. The test compound in the supernatant is quantified by LC/MS/MS, and a remaining amount of the test compound after the reaction is calculated, letting a compound amount at 0 minute reaction time to be 100%.
In general terms: Microsomes from liver hold many membrane-bound enzymes, among them those of drug oxidation.

T1 sequence (Q12809 whole entry): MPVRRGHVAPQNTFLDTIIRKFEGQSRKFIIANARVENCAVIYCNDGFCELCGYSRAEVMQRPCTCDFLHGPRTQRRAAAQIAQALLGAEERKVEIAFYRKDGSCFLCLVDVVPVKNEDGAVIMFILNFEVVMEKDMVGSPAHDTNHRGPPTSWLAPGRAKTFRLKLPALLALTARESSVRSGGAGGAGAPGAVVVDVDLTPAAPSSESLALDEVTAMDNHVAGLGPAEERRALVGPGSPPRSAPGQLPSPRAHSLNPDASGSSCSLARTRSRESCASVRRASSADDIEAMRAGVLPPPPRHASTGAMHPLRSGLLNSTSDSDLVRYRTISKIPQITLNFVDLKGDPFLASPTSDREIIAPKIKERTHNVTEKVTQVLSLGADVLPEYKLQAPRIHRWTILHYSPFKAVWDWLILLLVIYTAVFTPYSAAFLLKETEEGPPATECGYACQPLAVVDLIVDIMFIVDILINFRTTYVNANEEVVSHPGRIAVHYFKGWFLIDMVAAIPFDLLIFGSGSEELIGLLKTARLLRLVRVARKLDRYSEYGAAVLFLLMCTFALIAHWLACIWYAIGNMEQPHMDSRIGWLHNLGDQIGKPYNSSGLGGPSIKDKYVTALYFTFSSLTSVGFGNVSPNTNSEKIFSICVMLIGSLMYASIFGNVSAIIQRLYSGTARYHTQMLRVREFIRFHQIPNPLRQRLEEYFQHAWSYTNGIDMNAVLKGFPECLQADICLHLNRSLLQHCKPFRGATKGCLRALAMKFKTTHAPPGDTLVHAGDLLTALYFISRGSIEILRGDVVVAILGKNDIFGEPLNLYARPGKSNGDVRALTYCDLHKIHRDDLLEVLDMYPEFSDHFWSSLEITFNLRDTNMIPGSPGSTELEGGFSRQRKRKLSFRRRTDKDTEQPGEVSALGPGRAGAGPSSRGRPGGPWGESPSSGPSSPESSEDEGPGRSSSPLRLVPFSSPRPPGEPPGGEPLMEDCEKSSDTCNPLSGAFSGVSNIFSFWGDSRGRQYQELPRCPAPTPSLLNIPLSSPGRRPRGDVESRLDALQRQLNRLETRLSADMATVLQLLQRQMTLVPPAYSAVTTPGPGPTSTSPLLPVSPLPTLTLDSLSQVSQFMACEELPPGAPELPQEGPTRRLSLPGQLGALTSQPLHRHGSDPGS

Turning to `NC1=NC2(c3cc(-c4cncnc4)ccc3F)CCCC2CO1` (racemic) [Compound I-39], the half-maximal inhibitory concentration (IC50) in data set [1] was not above 1000 nM. Further, on hERG (IKr), the inhibition at 10 min worked out at 19.3%.

Take `NC1=NC2(c3cc(-c4cccnc4F)ccc3F)COCC2CO1` (racemic) [Compound I-42]: the IC50 in data set [1] was not above 1000 nM. Besides, in data set [2], the “remaining amount of the test compound after the reaction” value is reported as 94.7%.

For orientation: IC50 means the point on the concentration scale where inhibition reaches its midpoint. Broadly, the inhibition is the percentage by which the read-out fell short of the control.
